Assay results as given in PMC12969314 (European journal of medicinal chemistry, 2022).

Assays:
[1] = Human liver microsomal intrinsic clearance; format: in vitro ADME; details: for CLint scaled / Predicted hepatic clearance hCLHEP: human; for CLint scaled: liver microsomes, Intrinsic clearance hCLINT; for Predicted hepatic clearance hCLHEP: well-stirred organ CL model, binding terms excluded
[2] = Mouse liver microsomal intrinsic clearance; format: in vitro ADME; details: for CLint scaled: liver microsomes; for Predicted hepatic clearance mCLHEP: well-stirred organ CL model, binding terms excluded

| SMILES | CLint scaled ([1]; human liver microsomes) [mL/min/kg] | Predicted hepatic clearance hCLHEP [1] [mL/min/kg] | CLint scaled [2] [mL/min/kg] | Predicted hepatic clearance mCLHEP [2] [mL/min/kg] | Intrinsic clearance hCLINT ([1]; human liver microsomes) [mL/min/kg] |
| --- | --- | --- | --- | --- | --- |
| Cn1ncc2cc(CN3CCC(OCc4ccc(F)c(F)c4)CC3)ccc21 [Compound 13a, 5-((4-((3,4-difluorobenzyl)oxy)piperidin-1-yl)methyl)-1-methyl-1H-indazole] |  | 12.5 |  | 48.2 |  |
| Cn1ncc2cc(CN3CCC(OCc4cccc(C(F)(F)F)c4)CC3)ccc21 [Compound 13c, 1-Methyl-5-((4-((3-(trifluoromethyl)benzyl)oxy)piperidin-1-yl)methyl)-1H-indazole] |  | 15.3 |  | 43.8 |  |
| Fc1ccc(COC2CCN(Cc3cc4ccc(Cl)cc4[nH]3)CC2)cc1F [Compound 14a, 6-chloro-2-((4-((3,4-difluorobenzyl)oxy)piperidin-1-yl)methyl)-1H-indole] | < 30 | 10.8 |  | 43.3 |  |
| Cc1nc(CN2CCC(OCc3ccc(Cl)c(F)c3)CC2)c2ccccn12 [Compound 16b, 1-((4-((4-chloro-3-fluorobenzyl)oxy)piperidin-1-yl)methyl)-3-methylimidazo[1,5-a]pyridine] | 130 | 17.4 | 199 | 62.0 |  |
| Fc1ccc(OC[C@@H]2CN(Cc3cn4ccccc4n3)CCO2)cc1F [Compound 17k, (S)-2-((3,4-difluorophenoxy)methyl)-4-(imidazo[1,2-a]pyridin-2-ylmethyl)morpholine] | 42.1 | 13.6 | 321 | 70.3 |  |

Second part, the molecule after the results:

| CLint scaled ([1]; human liver microsomes) [mL/min/kg] | Predicted hepatic clearance hCLHEP [1] [mL/min/kg] | CLint scaled [2] [mL/min/kg] | Predicted hepatic clearance mCLHEP [2] [mL/min/kg] | Intrinsic clearance hCLINT ([1]; human liver microsomes) [mL/min/kg] | SMILES |
| --- | --- | --- | --- | --- | --- |
| < 20 | <10 | < 20 | <16 |  | Cn1cnc2cc(CN3CCC(OCc4ccc(Cl)c(F)c4)CC3)ccc21 [Compound 11b, 5-((4-((4-chloro-3-fluorobenzyl)oxy)piperidin-1-yl)methyl)-1-methyl-1H-benzo[d]imidazole] |
| < 30 | 11.5 | 72 | 40.0 | 26.8 | Fc1cc(COC2CCN(Cc3ccc4[nH]ncc4c3)CC2)ccc1Cl [Compound 12b, 5-((4-((4-chloro-3-fluorobenzyl)oxy)piperidin-1-yl)methyl)-1H-indazole] |
|  | 13.7 |  | 43.8 |  | Cn1ncc2cc(CN3CCC(OCc4ccc(Cl)c(F)c4)CC3)ccc21 [Compound 13b, 5-((4-((4-chloro-3-fluorobenzyl)oxy)piperidin-1-yl)methyl)-1-methyl-1H-indazole] |
| 334 | 19.0 | 545 | 77.3 |  | Cc1ccccc1CO[C@H]1CCCN(Cc2ccc3c(cnn3C)c2)C1 [Compound 13g, (S)-1-methyl-5-((3-((2-methylbenzyl)oxy)piperidin-1-yl)methyl)-1H-indazole] |
|  | <10 |  | 57.4 |  | Fc1ccc(COC2CCN(Cc3cn4ccccc4n3)CC2)cc1F [Compound 17a, 2-((4-((3,4-difluorobenzyl)oxy)piperidin-1-yl)methyl)imidazo[1,2-a]pyridine] |
|  | 13.8 |  | 46.7 |  | Fc1cc(COC2CCN(Cc3cn4ccccc4n3)CC2)ccc1Cl [Compound 17b, 2-((4-((4-chloro-3-fluorobenzyl)oxy)piperidin-1-yl)methyl)imidazo[1,2-a]pyridine] |
| 69.3 | 15.6 | 150 | 56.3 |  | FC(F)(F)c1cccc(COC2CCN(Cc3cn4ccccc4n3)CC2)c1 [Compound 17c, 2-((4-((3-(trifluoromethyl)benzyl)oxy)piperidin-1-yl)methyl)imidazo[1,2-a]pyridine] |
